Experimental data taken from patent US12391737B2, “Soluble NPY2 receptor agonists” (Boehringer Ingelheim International GmbH, priority 2020, dated 2025).
*1 amine or outer side, *2 acyl side, *3 side chain or, on linkers, in order; H or OH if unused. Side-chain parts run from the residue outwards. The star is where a group is joined. C18 diacid = O=C(O)CCCCCCCCCCCCCCCCC(=O)*; γGlu = O=C(O)[C@H](CCC(=O)[*:2])N[*:1]; Isovaleryl = CC(C)CC(=O)*; Ahx = NCCCCCC(=O)O

T1: human NPY5 receptor (hY5R) (Homo sapiens, UniProt Q15761)
T1 sequence (Q15761 1-445): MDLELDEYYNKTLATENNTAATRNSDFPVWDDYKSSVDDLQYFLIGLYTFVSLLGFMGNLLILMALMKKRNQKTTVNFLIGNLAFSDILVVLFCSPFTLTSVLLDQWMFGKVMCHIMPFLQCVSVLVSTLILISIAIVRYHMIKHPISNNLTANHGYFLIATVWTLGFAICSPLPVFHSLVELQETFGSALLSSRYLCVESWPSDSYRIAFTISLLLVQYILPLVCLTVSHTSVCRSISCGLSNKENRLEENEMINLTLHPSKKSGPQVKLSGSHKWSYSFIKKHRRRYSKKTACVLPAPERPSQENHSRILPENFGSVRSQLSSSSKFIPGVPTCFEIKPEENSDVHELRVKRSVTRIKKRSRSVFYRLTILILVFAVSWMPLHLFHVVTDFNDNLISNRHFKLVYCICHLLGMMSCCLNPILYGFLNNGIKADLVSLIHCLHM

T2: Human Neuropeptide Y2 Receptor (Homo sapiens, UniProt P49146)
T2 construct: purchased CHEMICON HTS066M
T2 sequence (P49146 1-381): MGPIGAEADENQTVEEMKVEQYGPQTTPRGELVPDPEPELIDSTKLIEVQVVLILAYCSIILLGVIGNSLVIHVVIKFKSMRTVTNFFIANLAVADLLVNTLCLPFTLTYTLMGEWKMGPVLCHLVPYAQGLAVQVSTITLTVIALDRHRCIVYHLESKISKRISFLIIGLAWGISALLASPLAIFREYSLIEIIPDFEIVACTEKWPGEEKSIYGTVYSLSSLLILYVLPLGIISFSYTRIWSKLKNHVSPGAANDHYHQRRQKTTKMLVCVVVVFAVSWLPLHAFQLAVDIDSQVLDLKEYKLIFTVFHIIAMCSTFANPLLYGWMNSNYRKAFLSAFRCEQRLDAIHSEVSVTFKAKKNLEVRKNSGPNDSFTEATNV

T3: human NPY1 receptor (hY1R) (Homo sapiens, UniProt P25929)
T3 construct: expressed in transfected cells; host or cells: CHO-K1
T3 sequence (P25929 1-384): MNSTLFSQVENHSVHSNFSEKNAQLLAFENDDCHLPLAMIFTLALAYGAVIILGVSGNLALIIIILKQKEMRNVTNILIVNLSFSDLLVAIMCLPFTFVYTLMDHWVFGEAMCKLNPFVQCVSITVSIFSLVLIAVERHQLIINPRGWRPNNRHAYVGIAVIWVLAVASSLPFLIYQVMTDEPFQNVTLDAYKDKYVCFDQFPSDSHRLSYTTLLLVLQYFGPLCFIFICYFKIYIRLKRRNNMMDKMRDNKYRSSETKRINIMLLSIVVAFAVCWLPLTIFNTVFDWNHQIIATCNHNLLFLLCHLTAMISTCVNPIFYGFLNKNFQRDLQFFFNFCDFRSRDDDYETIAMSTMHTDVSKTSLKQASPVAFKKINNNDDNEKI

T4: human NPY2 receptor (NPY2R) (human, UniProt P49146)
T4 chain: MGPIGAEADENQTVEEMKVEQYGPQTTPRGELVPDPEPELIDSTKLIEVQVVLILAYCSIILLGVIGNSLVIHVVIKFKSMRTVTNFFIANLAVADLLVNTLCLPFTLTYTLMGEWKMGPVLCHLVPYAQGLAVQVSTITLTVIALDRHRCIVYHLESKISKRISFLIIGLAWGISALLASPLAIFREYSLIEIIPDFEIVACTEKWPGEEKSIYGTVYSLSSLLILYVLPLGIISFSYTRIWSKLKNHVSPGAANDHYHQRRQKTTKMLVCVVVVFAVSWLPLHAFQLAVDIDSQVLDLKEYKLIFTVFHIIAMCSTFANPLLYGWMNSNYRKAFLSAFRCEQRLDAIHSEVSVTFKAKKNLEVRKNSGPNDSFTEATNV


Key:
[1] = target: T1, human NPY5 receptor (hY5R); test: HTRF cAMP Gi assay, hY5R
Solubility determination = conditions: for Sol6: pH 6; for Sol7: pH 7
How it was run: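 Solubility is derived from the ratio of reversed-phase peak areas, filtered sample over a control dissolved at 1 mg/ml in 50% acetonitrile. Peptides are agitated for 2 hours at room temperature in 0.1 M sodium diphosphate at pH 6.4 or 7.0, aiming at 10 mg/ml.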

[2] = target: T2, Human Neuropeptide Y2 Receptor; test: Radioligand binding competition assay (RLB); conditions: Table 3, 125I-PYY(1-36) competition; read-out: Ki
How it was run: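 Filtration binding assay on human Y2 receptor membrane preparation, 0.5 μg protein per well, in 50 mM HEPES pH 7.4 containing 5 mM MgCl2, 1 mM CaCl2 and 0.2% ovalbumin. Plates shake 2 h at room temperature before harvest and scintillation counting.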

[3] = target: T2, Human Neuropeptide Y2 Receptor; test: Activity (RLB binding) after incubation in solutions at different pH values; conditions: apparent Ki of filtrate after incubation at pH8.1-8.2, assumed 10 mg/ml; read-out: RLB 8 (pH8.1-8.2)
Procedure: The filtration RLB assay was carried out in 96-well plates in a final volume of 100 μl per well. Freeze-dried test peptides were dissolved in 100% dimethyl sulfoxide (DMSO) to stock solutions of 1 mM and serial dilutions were performed in assay buffer (50 mM HEPES, 5 mM MgCl2, 1 mM CaCl2, pH 7.4) containing 0.2% ovalbumin. […] Next, 80 μL membranes (HTS066M, ChemiSCREEN™ Human Neuropeptide Y2 Receptor Membrane Preparation, CHEMICON) were added to each well to give a final protein concentration of 0.5 μg/well. The plates were sealed and incubated at room temperature for 2 hours in a plate shaker set at 400 rpm. The incubation was stopped by vacuum filtration onto 0.5% polyethylene amine (PE) presoaked GF/C filters using a 96-well FilterMate™ harvester (Perkin Elmer) followed by four washes with 300 μl/well ice-cold wash buffer (50 mM HEPES, 500 mM NaCl, pH7.4). Filter plates were then dried for 60 min at room temperature and the bottom of the plates was sealed with backing tape UniFilter-96. Finally, 50 μl/well scintillation counter cocktail (Microscint20, Packard) was added and the radioactivity was counted in the Packard TopCount NXT scintillation counter. IC50 values (the half maximal inhibitory concentration of the agonist) were calculated by nonlinear regression analysis of sigmoidal dose-response curves.
The peptide was (partially) dissolved by shaking the filter unit horizontally at approx. 400 rpm for 2 hours at room temperature. The sample was filtered to remove any insoluble particles.

NMRI mice = test: Effect on acute food intake in normal NMRI mice; format: in vivo; conditions: 5 nmol/kg subcutaneously once
Procedure: Male NMRI mice were obtained from Charles River (Charles River, Research Models & Services Germany GmbH) or from JanVier (JanVier Labs, France) at 5 weeks of age. […] Room temperature was controlled to 21° C.±1° C., with 60%±20% humidity.
Animals were transferred 5-7 days before the start of the study to a real-time food intake monitoring system, HM-2 system (MBRose, Denmark), to allow acclimatization to experimental conditions. As the animals were uniquely identified with microchips, each individual animal was identified by its microchip upon entry and exit from the food channel. Randomization of the mice for each study group (n=7-8) was based on body weight measured the day before the start of the study. A vehicle-treated (50 mM phosphate buffer pH7 with 5% Mannitol) group was included in each experiment. Six hours before the start of the night phase animals were fasted. One hour before the dark phase animals were dosed once subcutaneously (5 nmol/kg) with test peptide. […] The food intake of the treated groups was normalized (in %) to the average food intake of the group receiving vehicle (Table 7). Statistical significance was evaluated using One-way analysis of variance with Turkey's multiple comparison test. P<0.05 was considered statistically significant.

[4] = target: T3, human NPY1 receptor (hY1R); test: HTRF cAMP Gi assay, hY1R; format: cell-based; conditions: CHO-K1 cells
Procedure: (§1) Briefly, the production of intracellular cAMP will generate a competition between unlabeled cAMP and exogenously added d2-cAMP for anti-cAMP antibodies conjugated to cryptate. CHO-K1 cells stably expressing the human NPY1, NPY2, NPY4 and NPY5 receptors were used with the cells brought to life from a frozen stock immediately before assay performance. 2000 cells per well were applied for all four NPY receptor subtype assays. A 384-well format was used applying a total volume of 20 μl using 5 μl cells, 2.5 μl peptide agonist, 2.5 μl forskolin and 5 μl of each of the fluorophores. […] Concentration-response evaluation of compounds was performed with 11 concentrations of agonist peptides (covering 3 decades). EC50 values were calculated by nonlinear regression using sigmoid concentration-response with variable slope.

[5] = target: T5, human NPY4 receptor (hY4R) (Homo sapiens, UniProt P50391); test: HTRF cAMP Gi assay, hY4R; format: cell-based; conditions: CHO-K1 cells
T5 construct: expressed in transfected cells; host or cells: CHO-K1
Procedure: as §1

[6] = target: T4, human NPY2 receptor (NPY2R); test: competition

T5 sequence (P50391 whole entry): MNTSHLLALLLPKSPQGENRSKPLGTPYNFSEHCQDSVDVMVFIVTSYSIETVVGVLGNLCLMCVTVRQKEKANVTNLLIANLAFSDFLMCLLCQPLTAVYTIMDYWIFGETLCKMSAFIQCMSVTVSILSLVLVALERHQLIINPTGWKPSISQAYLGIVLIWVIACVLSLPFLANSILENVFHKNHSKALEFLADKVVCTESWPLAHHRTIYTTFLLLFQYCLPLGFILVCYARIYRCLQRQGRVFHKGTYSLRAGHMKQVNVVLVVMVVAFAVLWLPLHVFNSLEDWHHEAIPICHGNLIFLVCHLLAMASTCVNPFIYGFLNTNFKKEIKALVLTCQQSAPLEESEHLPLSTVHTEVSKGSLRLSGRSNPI

| Molecule | EC50 [1] | Sol6 (Solubility determination) | Sol7 (Solubility determination) | Ki [2] | Ki [3] | Acute Food Intake 24 h [% vehicle] (NMRI mice) | EC50 [4] | EC50 [5] | Ki [6] |
| --- | --- | --- | --- | --- | --- | --- | --- | --- | --- |
| CC[C@H](C)[C@H](NC(=O)[C@H](CCC(=O)O)NC(=O)[C@H](CCC(=O)O)NC(=O)[C@@H]1CCCN1C(=O)[C@@H](NC(=O)[C@H](C)NC(=O)[C@H](CC(=O)O)NC(=O)[C@H](C)NC(=O)[C@H](CCC(=O)O)NC(=O)[C@@H]1CCCN1C(=O)[C@H](CCCCNC(=O)CCCCCNC(=O)CC[C@H](NC(=O)CCCCCCCCCCCCCCCCC(=O)O)C(=O)O)NC(=O)[C@H](CCC(=O)O)NC(=O)[C@@H]1CCCN1C(=O)[C@H](C)NC(=O)CC(C)C)[C@@H](C)O)C(=O)N[C@@H](CCC(N)=O)C(=O)N[C@@H](CCCNC(=N)N)C(=O)N[C@@H](Cc1ccc(O)cc1)C(=O)N[C@@H](Cc1ccc(O)cc1)C(=O)N[C@H](C(=O)N[C@@H](CO)C(=O)N[C@@H](CC(C)C)C(=O)N[C@@H](CCCNC(=N)N)C(=O)N[C@@H](Cc1c[nH]cn1)C(=O)N[C@@H](Cc1ccc(O)cc1)C(=O)N[C@@H](Cc1ccc(O)cc1)C(=O)N[C@@H](CC(N)=O)C(=O)N[C@@H](Cc1c[nH]c2ccccc12)C(=O)N[C@@H](CC(C)C)C(=O)N[C@H](C(=O)N[C@@H](CCCNC(=N)N)C(=O)N[C@@H](CCC(N)=O)C(=O)N[C@@H](CCCNC(=N)N)C(=O)N[C@@H](Cc1ccc(O)cc1)C(N)=O)[C@@H](C)O)C(C)C [Compound 7, N{alpha-4}-(3-methylbutanoyl)-N{epsilon-7}-(6-[(4S)-4-carboxy-4-(17-carboxyheptadecanamido)butanamido]hexanoyl)[4A,7K,9E,10A,13T,17I,18Q,22V,28Y,30W,31L]-hPYY(4-36)] | > 5000 nM | 8.9 mg/mL | 9.2 mg/mL | 1.04 nM | 3.1 nM | 38 % vehicle | > 5000 nM | > 5000 nM | – |
| CC(C)CC(=O)N[C@@H](C)C(=O)N1CCC[C@H]1C(=O)N[C@@H](C)C(=O)N[C@@H](CCCCNC(=O)CCCCCNC(=O)CC[C@H](NC(=O)CCCCCCCCCCCCCCCCC(=O)O)C(=O)O)C(=O)N1CCC[C@H]1C(=O)N[C@@H](CCC(=O)O)C(=O)N[C@@H](CCC(=O)O)C(=O)N[C@@H](CC(=O)O)C(=O)N[C@@H](C)C(=O)N[C@H](C(=O)N1CCC[C@H]1C(=O)N[C@@H](CCC(=O)O)C(=O)N[C@@H](CCC(=O)O)C(=O)N[C@@H](CC(C)C)C(=O)N[C@@H](CCC(N)=O)C(=O)N[C@@H](CCCNC(=N)N)C(=O)N[C@@H](Cc1ccc(O)cc1)C(=O)N[C@@H](Cc1ccc(O)cc1)C(=O)N[C@H](C(=O)N[C@@H](CO)C(=O)N[C@@H](CC(C)C)C(=O)N[C@@H](CCCNC(=N)N)C(=O)N[C@@H](Cc1c[nH]cn1)C(=O)N[C@@H](Cc1ccc(O)cc1)C(=O)N[C@@H](Cc1ccc(O)cc1)C(=O)N[C@@H](CC(N)=O)C(=O)N[C@@H](Cc1c[nH]c2ccccc12)C(=O)N[C@@H](CC(C)C)C(=O)N[C@H](C(=O)N[C@@H](CCCNC(=N)N)C(=O)N[C@@H](CCC(N)=O)C(=O)N[C@@H](CCCNC(=N)N)C(=O)N[C@@H](Cc1ccc(O)cc1)C(N)=O)[C@@H](C)O)C(C)C)[C@@H](C)O [Compound 26, N{alpha-4}-(3-methylbutanoyl)-N{epsilon-7}-(6-[(4S)-4-carboxy-4-(17-carboxyheptadecanamido)butanamido]hexanoyl)[4A,6A,7K,9E,13T,18Q,22V,28Y,30W,31L]-hPYY(4-36)] | > 5000 nM | 9.2 mg/mL | 9.1 mg/mL | 5.64 nM | – | 53 % vehicle | – | – | – |
| Isovaleryl-APEK([Ahx-γGlu-C18 diacid])PEAEASPEELQRYYVSLRHYYNWLTRQRY-NH2 [Compound 122] | – | – | – | – | – | – | – | – | 2.73 nM |
